What was measured:
Format in all cases: in vivo
[1] = system: blood free radical levels; assay: Blood free radical levels; conditions: compared with SOD
6-keto-PGF1α = 6-keto-PGF1α plasma levels in mice after lethal dose of endotoxin; conditions: Table XI, endotoxin 60 mg/kg + Tβ4 100 μg administered simultaneously
From the text: (§1) Using the same methods and materials as in examples 1-3, the effect which Tβ4 has on blood levels of IL-1α, TNF-α, PAG, Txβ2 and 6-keto-PGF1 α, which are pathological mediators of endotoxin induced lethality, was studied.

T × β2 = assay: T×β2 plasma levels in mice after lethal dose of endotoxin; conditions: Table X, endotoxin 60 mg/kg + Tβ4 100 μg administered simultaneously
From the text: as §1

TNFα = TNFα levels in a septic shock model in rat; conditions: rats with septic shock + Tβ4 1 mg/rat × 3
From the text: Using a septic shock model in rats (Sprague-Dawley, male, 200-225 g each), the effect of thymosin β4 alone and together with antibiotics was studied. Peritonitis was induced in rats in the following way. A 1-cm incision was made into the peritoneal which exposed the cecum. A tight ligature was placed around the cecum with 4-0 suture distal to the insertion of the small bowel, forming an area of devitalized tissue while maintaining bowel continuity. A puncture wound was made with 16-gauge needle into the anti-mesenteric surface of the cecum and a small amount of fecal contents was expressed through the wound. The cecum was replaced into the peritoneal cavity, and the anterior peritoneal wall and skin were closed with surgical staples. Each animal was given a bolus of normal saline (15 ml/kg) for hydration and allowed to recover overnight.
The results presented in Tables XV to XVIII below show effects of Tβ4 respectively on rat cytokine levels, blood malonyldialdehyde levels, glutathione levels and arachidonic acid metabolic levels.

endotoxic mice = assay: Survival of Swiss Webster mice following lethal endotoxin dose and Tβ4; conditions: for Number of Mice Alive: Table II, 8 mice at 0 hr.
Protocol: Swiss-Webster mice 4-6 weeks of age (20-25 g) were housed 6 per cage. The mice were divided into 2 groups: endotoxic mice (endotoxin 60 mg/kg i.p. in acute treatment) and endotoxic mice treated with Tβ4, 5 minutes and 2, 4, 6, 8, 10, 12, 14, 16, 18, 20, 22, 24 hours post administration of the endotoxin. Survival was recorded 2 times a day for 7 days.
Swiss-Webster mice 4-6 weeks of age (20-25 g) were divided into groups as follows.
1. Mice treated with a lethal dose of endotoxin (60 mg/kg).
2. […]
3. […]
4. […]

Substance: Thymosin β4 [Tβ4]
- blood free radical levels (in words) [1]: reduce blood free radical levels almost as much as SOD
- 6-keto-PGF1α (plasma levels) (6-keto-PGF1α; 0.5 hr.): 141 ± 9 pg/mL
- 6-keto-PGF1α (plasma levels) (6-keto-PGF1α; 1 hr): 261 ± 23 pg/mL
- 6-keto-PGF1α (plasma levels) (6-keto-PGF1α; 2 hr): 147 ± 19 pg/mL
- 6-keto-PGF1α (plasma levels) (6-keto-PGF1α; 3 hr): 121 ± 13 pg/mL
- T × β2 (plasma levels) (T × β2; 0.5 hr.): 209 ± 9,5 pg/ml
- T × β2 (plasma levels) (T × β2; 1 hr): 607 ± 53 pg/mL
- T × β2 (plasma levels) (T × β2; 2 hr): 196 ± 18 pg/mL
- T × β2 (plasma levels) (T × β2; 3 hr): 112 ± 9 pg/mL
- TNFα (TNFα): 1259 ± 138 pg/mL
- protective activity on endotoxin lethality (in words) (endotoxic mice; 10 μg Tβ4): sometimes shown positive activity
- Survival (No. mice alive) (endotoxic mice; Table I, endotoxin 60 mg/kg + Tβ4 100 μg 1x, 24 hrs, 7 mice at 0 hrs): 4
- Survival (No. mice alive) (endotoxic mice; Table I, endotoxin 60 mg/kg + Tβ4 100 μg 1x, 48 hrs, 7 mice at 0 hrs): 3
- Survival (No. mice alive) (endotoxic mice; Table I, endotoxin 60 mg/kg + Tβ4 100 μg 1x, 72 hrs, 7 mice at 0 hrs): 3
- Survival (No. mice alive) (endotoxic mice; Table I, endotoxin 60 mg/kg + Tβ4 100 μg 2x, 24 hrs, 7 mice at 0 hrs): 4
- Survival (No. mice alive) (endotoxic mice; Table I, endotoxin 60 mg/kg + Tβ4 100 μg 2x, 48 hrs, 7 mice at 0 hrs): 4
- Survival (No. mice alive) (endotoxic mice; Table I, endotoxin 60 mg/kg + Tβ4 100 μg 2x, 72 hrs, 7 mice at 0 hrs): 4
- Survival (No. mice alive) (endotoxic mice; Table I, endotoxin 60 mg/kg + Tβ4 100 μg 3x, 24 hrs, 7 mice at 0 hrs): 7
- Survival (No. mice alive) (endotoxic mice; Table I, endotoxin 60 mg/kg + Tβ4 100 μg 3x, 48 hrs, 7 mice at 0 hrs): 7
- Survival (No. mice alive) (endotoxic mice; Table I, endotoxin 60 mg/kg + Tβ4 100 μg 3x, 72 hrs, 7 mice at 0 hrs): 7
- Number of Mice Alive (endotoxic mice; endotoxin 60 mg/kg + Tβ4 100 μg 3x, 24 hr.): 8
- Number of Mice Alive (endotoxic mice; endotoxin 60 mg/kg + Tβ4 100 μg 3x, 48 hr.): 8
- Number of Mice Alive (endotoxic mice; endotoxin 60 mg/kg + Tβ4 100 μg 3x, 72 hr.): 8
- Number of Mice Alive (endotoxic mice; endotoxin 60 mg/kg + Tβ4 100 μg 3x, 7 day): 8
- Number of Mice Alive (endotoxic mice; endotoxin 60 mg/kg + Tβ4 100 μg 3x, 14 day): 8
- Survival (No. mice alive) (endotoxic mice; Table VI, endotoxin 60 mg/kg + Tβ4 10 μg 3x, immediately following, 2 and 4 hrs after endotoxin, 24 hrs, 8 mice at 0 hrs): 8
- Survival (No. mice alive) (endotoxic mice; Table VI, endotoxin 60 mg/kg + Tβ4 10 μg 3x, immediately following, 2 and 4 hrs after endotoxin, 48 hrs, 8 mice at 0 hrs): 6
- Survival (No. mice alive) (endotoxic mice; Table VI, endotoxin 60 mg/kg + Tβ4 10 μg 3x, immediately following, 2 and 4 hrs after endotoxin, 72 hrs, 8 mice at 0 hrs): 6
- Survival (No. mice alive) (endotoxic mice; Table VI, endotoxin 60 mg/kg + Tβ4 10 μg 3x, immediately following, 2 and 4 hrs after endotoxin, 96 hrs, 8 mice at 0 hrs): 6
- Survival (No. mice alive) (endotoxic mice; Table VI, endotoxin 60 mg/kg + Tβ4 10 μg 3x, immediately following, 2 and 4 hrs after endotoxin, 120 hrs, 8 mice at 0 hrs): 6
- Survival (No. mice alive) (endotoxic mice; Table VI, endotoxin 60 mg/kg + Tβ4 100 μg 3x, 2, 4 and 6 hrs after endotoxin, 24 hrs, 8 mice at 0 hrs): 7
- Survival (No. mice alive) (endotoxic mice; Table VI, endotoxin 60 mg/kg + Tβ4 100 μg 3x, 2, 4 and 6 hrs after endotoxin, 48 hrs, 8 mice at 0 hrs): 4
- Survival (No. mice alive) (endotoxic mice; Table VI, endotoxin 60 mg/kg + Tβ4 100 μg 3x, 2, 4 and 6 hrs after endotoxin, 72 hrs, 8 mice at 0 hrs): 4
- Survival (No. mice alive) (endotoxic mice; Table VI, endotoxin 60 mg/kg + Tβ4 100 μg 3x, 2, 4 and 6 hrs after endotoxin, 96 hrs, 8 mice at 0 hrs): 4
- Survival (No. mice alive) (endotoxic mice; Table VI, endotoxin 60 mg/kg + Tβ4 100 μg 3x, 2, 4 and 6 hrs after endotoxin, 120 hrs, 8 mice at 0 hrs): 4
- Survival (No. mice alive) (endotoxic mice; Table VI, endotoxin 60 mg/kg + Tβ4 100 μg 3x, immediately following, 2 and 4 hrs after endotoxin, 24 hrs, 8 mice at 0 hrs): 8
- Survival (No. mice alive) (endotoxic mice; Table VI, endotoxin 60 mg/kg + Tβ4 100 μg 3x, immediately following, 2 and 4 hrs after endotoxin, 48 hrs, 8 mice at 0 hrs): 8
- Survival (No. mice alive) (endotoxic mice; Table VI, endotoxin 60 mg/kg + Tβ4 100 μg 3x, immediately following, 2 and 4 hrs after endotoxin, 72 hrs, 8 mice at 0 hrs): 8
- Survival (No. mice alive) (endotoxic mice; Table VI, endotoxin 60 mg/kg + Tβ4 100 μg 3x, immediately following, 2 and 4 hrs after endotoxin, 96 hrs, 8 mice at 0 hrs): 8
- Survival (No. mice alive) (endotoxic mice; Table VI, endotoxin 60 mg/kg + Tβ4 100 μg 3x, immediately following, 2 and 4 hrs after endotoxin, 120 hrs, 8 mice at 0 hrs): 8
- Survival (No. mice alive) (endotoxic mice; Table VII, endotoxin 60 mg/kg + Tβ4 10 μg 3x i.p., immediately following, 2 and 4 hrs after endotoxin, 24 hrs, 10 mice at 0 hrs): 3
- Survival (No. mice alive) (endotoxic mice; Table VII, endotoxin 60 mg/kg + Tβ4 10 μg 3x i.p., immediately following, 2 and 4 hrs after endotoxin, 48 hrs, 10 mice at 0 hrs): 3
- Survival (No. mice alive) (endotoxic mice; Table VII, endotoxin 60 mg/kg + Tβ4 10 μg 3x i.p., immediately following, 2 and 4 hrs after endotoxin, 72 hrs, 10 mice at 0 hrs): 3

— patent US5578570A, “Method of treating septic shock using thymosin β4” (The George Washington University Medical Center, priority 1994, dated 1996)
